Literature values, collected in patent US20030228375A1 (priority 2002, published 2003).
Like-named read-outs stand apart in the source and are kept apart here.

Experiments:
[1] = in vivo
[2] = supplementation
[3] = supplementation; remark: listed apart in the source
[4] = test system: young female rats
[5] = molecular target: T1, aromatase (Homo sapiens, UniProt P11511); conditions: compared with chrysin, AG and ANG
T1 sequence (P11511 1-503): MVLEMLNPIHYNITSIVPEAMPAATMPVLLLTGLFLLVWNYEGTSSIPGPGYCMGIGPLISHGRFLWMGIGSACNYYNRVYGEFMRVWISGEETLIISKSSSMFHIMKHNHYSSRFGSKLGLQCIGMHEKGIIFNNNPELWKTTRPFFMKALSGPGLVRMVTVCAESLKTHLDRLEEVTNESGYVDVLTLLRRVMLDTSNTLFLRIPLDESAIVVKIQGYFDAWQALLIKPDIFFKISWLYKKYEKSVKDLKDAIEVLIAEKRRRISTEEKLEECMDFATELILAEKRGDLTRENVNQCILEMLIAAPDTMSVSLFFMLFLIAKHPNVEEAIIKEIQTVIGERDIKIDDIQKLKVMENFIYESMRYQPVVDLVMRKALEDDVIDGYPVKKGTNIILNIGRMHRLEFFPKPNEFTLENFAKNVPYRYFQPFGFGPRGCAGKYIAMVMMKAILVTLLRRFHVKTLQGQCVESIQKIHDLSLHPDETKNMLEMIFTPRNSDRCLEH

[6] = test system: people with panhypopituitarism
[7] = test system: levator ani muscles
[8] = test system: prostate and seminal vesicle weights
[9] = test system: hypogonadal men; conditions: for waking erection: Asian group; for sexual interest and activity, spontaneous erection: Caucasian group
[10] = test system: HIV-infected men; conditions: pharmacological doses
[11] = test system: healthy young men; conditions: 300 mg/wk for six weeks; TE shoulders, ND shoulders and chest
[12] = nandrolone use
[13] = test system: patients on dialysis; conditions: compared with placebo
[14] = body builders

In the case of `C[C@]12CC[C@H]3[C@@H](CCC4=C[C@@H](O)CC[C@@]43C)[C@@H]1CC[C@@H]2O` [4-androstenediol], the “human serum testosterone levels” value [1] is listed as “elevations in human serum testosterone levels” and the “urine testosterone concentration relative to 4-androstenedione” value [2] is listed as 10 fold.
For `C[C@]12CCC(=O)C=C1CC[C@@H]1[C@@H]2CC[C@]2(C)C(=O)CC[C@@H]12` [4-androstenedione], the serum testosterone [3] is given as “elevations in serum testosterone”.
In the case of `C[C@]12CC[C@H]3[C@@H](CC=C4C[C@@H](O)CC[C@@]43C)[C@@H]1CC[C@@H]2O` [5-androstenediol], the “proportion of protein in the body composition” value [4] is given as “increased the proportion of protein”.
In the case of `COc1ccc(-c2coc3cc(O)cc(O)c3c2=O)cc1` [Biochanin A, 5,7-dihydroxy-4′-methoxyisoflavone], the aromatase inhibition [5] is given as “inhibited aromatase, but to a lesser degree”.
In the case of `C[C@]12CC[C@H](O)CC1=CC[C@@H]1[C@@H]2CC[C@]2(C)C(=O)CC[C@@H]12` [DHEA, dehydro-epiandrosterone], the plasma testosterone ([6]; 50 mg dose) is given as “restored plasma testosterone to levels similar to those observed in young women”, the “plasma estrogens, particularly estradiol” value ([6]; 50 mg or 200 mg) is given as “significant and dose dependent increase” and the plasma testosterone ([6]; 200 mg dose) is given as “slightly below the levels observed in normal men”.
In the case of `C[C@@H]1CC2=CC(=O)CC[C@@H]2[C@H]2CC[C@]3(C)[C@@H](O)CC[C@H]3[C@@H]21` [MENT, 7α-methyl-19-nor-testosterone], the “anabolic potency relative to testosterone” value [7] is listed as “ten-times as potent as testosterone”, the “androgenic potency relative to testosterone” value [8] is listed as “four- to five-times more androgenic than testosterone” and the waking erection [9] is listed as “increased waking erection”. The “sexual interest and activity, spontaneous erection” value [9] was “significant increases”.
For `CCCCCCCCCC(=O)O[C@H]1CC[C@H]2[C@@H]3CCC4=CC(=O)CC[C@@H]4[C@H]3CC[C@]12C` [ND, 19-nor-testosterone decanoate], the “total weight, lean body mass, body cell mass, muscle size and strength” value [10] is given as “significant gains” and the “body circumferences (of fifteen)” value [11] is given as “significant increases”.
For `CCCCCCC(=O)O[C@H]1CC[C@H]2[C@@H]3CCC4=CC(=O)CC[C@]4(C)[C@H]3CC[C@]12C` [TE, testosterone enanthate], the waking erection [9] is given as “increased waking erection”, the “sexual interest and activity, spontaneous erection” value [9] is given as “significant increases” and the “body circumferences (of fifteen)” value [11] is given as “significant increases”.
For `C[C@]12CC[C@H]3[C@@H](CCC4=CC(=O)CC[C@@H]43)[C@@H]1CC[C@@H]2O` [nandrolone, 19-nor-testosterone], the effect on sperm [12] is listed as “azoospermia”, the lean body mass [13] is listed as “increased significantly” and the “decrease in HDL-cholesterol” value [14] is listed as 25-27%. The energy expenditure [4] was “increased energy expenditure”.
In the case of `C[C@]12CC[C@H]3[C@@H](CCC4=CC(=O)CC[C@@]43C)[C@@H]1CC[C@@H]2O` [testosterone], the “proportion of protein in the body composition” value [4] is given as “increased the proportion of protein”.
